Here are results for 2 compounds from patent publication US10611772B2, “Crystalline form of Ribociclib succinate” (Apotex Inc., priority 2018, dated 2020).

Series [1] can be described thus: Comparative intrinsic dissolution testing (Wood apparatus). It counts as physicochemical. The following applies: 400 mg sample compressed at 1.5 metric tons for 1 minute, 900 mL 0.01 N HCl buffer, 75 rpm.
Description: Intrinsic dissolution rate (IDR) measurements were performed using a Wood apparatus. Samples were prepared by compressing 400 mg sample at 1.5 metric tons for 1 minute. A dissolution medium consisting of 900 mL 0.01 N HCl buffer, and rotation speed of 75 rpm, was used for each experiment.
For series [2] the following is noted: cited from earlier work; for Hygroscopicity: as reported in the prior art or the CHMP report.
For series [3] the following is noted: CHMP Assessment Report for KISQALI; anhydrous form; cited from earlier work.

Turning to `CN(C)C(=O)c1cc2cnc(Nc3ccc(N4CCNCC4)cn3)nc2n1C1CCCC1.O=C(O)CCC(=O)O` [Ribociclib succinate non-hydrate form], the “Intrinsic Dissolution Rate” value in series [1] came to 1.9520 mg min^−1 cm^−2. In addition, the “Form conversion upon exposure to high humidity levels” value in series [2] (WO 2012/064805 A1) is recorded as “converts to the hydrate form”. Besides, in series [2], the Hygroscopicity entry was “hygroscopic”.
On to `CN(C)C(=O)c1cc2cnc(Nc3ccc(N4CCNCC4)cn3)nc2n1C1CCCC1` [Ribociclib succinate, 7-cyclopentyl-N,N-dimethyl-2-{[5-(piperazin-1-yl)pyridin-2-yl]amino}-7H-pyrrolo[2,3-d]pyrimidine-6-carboxamide], for which, in series [3], the “BCS Class” value is “Class IV” and the “Solubility (BCS assessment)” value is given as “low solubility”. Further, in series [2], the Hygroscopicity result is reported as “exhibits hygroscopicity”.
